{"source": "paper PMC9551036", "about": "“A selective and orally bioavailable VHL-recruiting PROTAC achieves SMARCA2 degradation in vivo” (Nature Communications, 2022)", "key": {"SMARCA2": {"target": "SMARCA2 (Homo sapiens, UniProt P51531)", "sequence (P51531 whole entry)": "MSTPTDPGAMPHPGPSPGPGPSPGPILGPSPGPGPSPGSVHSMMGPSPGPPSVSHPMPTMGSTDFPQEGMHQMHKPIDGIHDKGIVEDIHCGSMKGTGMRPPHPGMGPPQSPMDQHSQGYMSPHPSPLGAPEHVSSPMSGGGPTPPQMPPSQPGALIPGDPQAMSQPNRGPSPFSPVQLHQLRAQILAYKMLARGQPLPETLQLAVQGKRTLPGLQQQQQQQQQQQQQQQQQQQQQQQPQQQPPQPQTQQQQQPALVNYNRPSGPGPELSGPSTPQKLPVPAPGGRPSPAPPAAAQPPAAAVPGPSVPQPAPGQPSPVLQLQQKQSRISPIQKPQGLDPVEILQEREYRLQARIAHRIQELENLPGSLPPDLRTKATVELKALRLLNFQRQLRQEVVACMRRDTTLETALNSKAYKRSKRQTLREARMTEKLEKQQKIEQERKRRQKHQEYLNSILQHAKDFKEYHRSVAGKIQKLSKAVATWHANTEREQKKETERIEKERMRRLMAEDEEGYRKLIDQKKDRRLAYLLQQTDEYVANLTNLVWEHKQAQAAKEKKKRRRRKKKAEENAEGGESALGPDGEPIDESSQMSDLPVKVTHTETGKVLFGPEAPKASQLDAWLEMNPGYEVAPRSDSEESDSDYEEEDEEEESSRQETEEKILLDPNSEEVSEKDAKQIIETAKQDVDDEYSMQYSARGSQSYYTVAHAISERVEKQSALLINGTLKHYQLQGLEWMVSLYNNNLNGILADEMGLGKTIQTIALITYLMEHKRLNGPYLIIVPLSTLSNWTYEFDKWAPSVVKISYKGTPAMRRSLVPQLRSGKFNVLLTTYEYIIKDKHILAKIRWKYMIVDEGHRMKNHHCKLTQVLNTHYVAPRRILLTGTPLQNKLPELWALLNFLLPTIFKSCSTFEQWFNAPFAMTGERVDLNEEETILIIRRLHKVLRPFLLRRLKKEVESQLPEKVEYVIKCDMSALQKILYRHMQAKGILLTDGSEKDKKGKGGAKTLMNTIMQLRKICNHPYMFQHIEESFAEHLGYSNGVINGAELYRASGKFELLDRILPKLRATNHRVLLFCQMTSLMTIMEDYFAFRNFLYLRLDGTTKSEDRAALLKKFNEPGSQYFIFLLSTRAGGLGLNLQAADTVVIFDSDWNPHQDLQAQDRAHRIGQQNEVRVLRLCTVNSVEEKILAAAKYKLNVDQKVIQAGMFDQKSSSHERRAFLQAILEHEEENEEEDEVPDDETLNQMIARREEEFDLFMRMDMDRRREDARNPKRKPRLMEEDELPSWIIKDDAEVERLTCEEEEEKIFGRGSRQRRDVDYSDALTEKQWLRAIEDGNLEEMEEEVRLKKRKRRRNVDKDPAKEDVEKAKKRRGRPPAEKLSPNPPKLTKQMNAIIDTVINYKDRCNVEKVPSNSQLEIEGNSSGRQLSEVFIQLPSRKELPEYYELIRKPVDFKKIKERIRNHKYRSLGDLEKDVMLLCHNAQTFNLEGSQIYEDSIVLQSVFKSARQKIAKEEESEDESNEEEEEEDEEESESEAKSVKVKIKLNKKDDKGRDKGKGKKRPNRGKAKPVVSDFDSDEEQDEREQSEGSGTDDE", "experiment": "SMARCA2 capillary electrophoresis protein assay in RKO cells", "assay_type": "cell-based", "parameters": "endogenous in cells; host or cells: RKO, NCI-H1568, A549, HCT116, LU99, HCC-364, HCT-15, HCC4006, SK-N-AS", "conditions": "mean ± SD; for Dmax: RKO", "method": "130,000–200,000 cells were seeded in 24-well plates and incubated until settled down or overnight. Compounds were dissolved in DMSO and added to cells in indicated concentrations using a digital dispenser following an optional media change. […] For SMARCA2/4 half-life determination, 150,000 or 200,000 cells were seeded in 24-well plates. […] For SMARCA2/4 re-synthesis measurements, 200,000 cells were seeded in 24-well plates. […] Medium was removed, cells were washed with PBS and lysed with 80 µl Lysis Buffer (MSD Tris Lysis Buffer (#R60TX-2) + Halt Inhibitor Cocktail (100x) + Benzonase 0.5 µL/ml). Samples were frozen at −80 °C and thawed at room temperature before use. Samples were transferred to a V-bottom plate and insoluble debris was pelleted by centrifugation for 5 min at maximum speed. The supernatant was transferred to a fresh plate. Master Mix and Ladder were prepared according to manufacturer’s instructions for 12–230 kDa Wes Separation Module, 8 × 25 capillary cartridges, Protein Simple #SM-W004 with Anti-Rabbit Detection Module for Wes, Peggy Sue or Sally Sue, Protein Simple #DM-001. 4.8 µl lysate were mixed with 1.2 µl Master Mix to achieve a protein concentration of ~0.5 µg/µl. […] Wes plates were prepared and run according to manufacturer’s instructions. Proteins were quantified with accompanying Compass Software. SMARCA2/4 protein levels were normalised to GAPDH. […] Where applicable, curves were fitted using a 4-parametric logistic model."}, "SMARCA4^BD": {"target": "T1, SMARCA4^BD (Homo sapiens, UniProt P51532)", "T1 construct": "P51532, residues 1448–1569 with additional N-terminal SM residues; GST (TEV site) (N, cleaved yes); made in house; host or cells: Escherichia coli BL21(DE3); construct from SGC Toronto", "T1 sequence (P51532 1448-1569)": "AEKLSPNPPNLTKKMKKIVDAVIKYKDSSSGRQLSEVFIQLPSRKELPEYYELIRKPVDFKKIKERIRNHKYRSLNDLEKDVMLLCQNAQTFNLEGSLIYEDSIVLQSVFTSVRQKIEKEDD", "experiment": "SPR binding to immobilised SMARCA4 bromodomain", "method": "SMARCA4^BD was provided by the Structural Genomics Consortium (SGC), Toronto[32] and SMARCA2^BD and PRM1^BD5 were synthesised by GeneArt then subcloned into pDEST15 vectors (Invitrogen). The VCB complex was expressed and purified as described previously, with the modification that 0.3 mM IPTG was used for induction of expression. […] Both were stored in 20 mM 4-(2-hydroxyethyl)−1-piperazineethanesulfonic acid (HEPES), 150 mM sodium chloride and 1 mM tris(2-carboxyethyl)phosphine (TCEP) pH 7.5. SMARCA2^BD, SMARCA4^BD and PBRM1^BD5 were expressed in Escherichia coli BL21(DE3) as N-terminal GST fusion proteins with a TEV protease cleavage site. Expression and purification of these proteins has been described previously[32],[33]. Starter cultures were grown overnight at 37 °C in 10 mL of Luria-Bertani (LB) medium with ampicillin (100 μg/mL). The starter cultures were diluted (1:100) in Terrific Broth (TB) medium with ampicillin (100 μg/mL) and grown in a shaking incubator at 37 °C to an optical density (OD600) ~1 before the temperature was lowered for induction (to 23 °C for SMARCA2^BD or 18 °C for SMARCA4^BD and PRRM1^BD5). […] Cells were harvested by centrifugation and stored at −80 °C prior to purification. Cells were resuspended in Lysis buffer and lysed by sonication (20 pulses of 5 s for 4 min) using a Sonopuls HD 3080 (Bandelin, Berlin, Germany) or by homogenisation using a Stansted Pressure Cell Homogeniser (Stansted Fluid Power). The Lysis buffers were as follows: for SMARCA2^BD: 50 mM HEPES, 500 mM sodium chloride, 5% glycerol, 5 mM dithiothreitol (DTT); for SMARCA4^BD: 25 mM HEPES, 0.3 M sodium chloride, 5% glycerol, 10 mM DTT, pH 7.5; for PBRM1^BD5: 25 mM HEPES, 300 mM sodium chloride, 5% glycerol, 10 mM DTT, pH 7.8; in each case supplemented with complete protease inhibitors (Roche). Affinity purification was performed using Glutathione Sepharose 4B (GE Healthcare) in batch mode or on-column. […] For SMARCA2^BD, prior to TEV protease cleavage the eluted GST-tagged BD was first dialysed into desalting buffer (20 mM HEPES, 250 mM sodium chloride, pH 7.0 + 0.5% glycerol). Where TEV cleavage was performed in solution, a second affinity (GST-trap) column purification step was carried out to remove the GST-tag and uncleaved GST-tagged protein. Proteins were further purified by SEC (HiLoad Superdex-75, 16/600) (GE Healthcare) and stored in Storage buffer (for SMARCA2^BD: 20 mM HEPES, 150 mM sodium chloride, pH 7.5; for SMARCA4^BD: 10 mM HEPES, 0.5 M NaCl, 5% glycerol, pH 7.5; for PBRM1^BD5: 20 mM HEPES, 300 mM NaCl, 5 mM DTT, pH 7.8). For AlphaScreen assays, eluted GST-tagged BDs were purified directly by SEC in the respective storage buffers without TEV cleavage. All chromatography purification steps were performed either at room temperature or 4 °C using an ÄKTA FPLC purification system (GE Healthcare) or a plastic Econo-Pac column (Bio-Rad).\nSPR data were acquired on Biacore 8K or T200 instruments (Cytiva). Target proteins were immobilised at 25 °C on CM5 chips by amine coupling (EDC/NHS, Cytiva) in HBS-P+ running buffer (pH 7.4), containing 2 mM TCEP. After surface activation with EDC/NHS (contact time 420 s, flow rate 10 µl/min) SMARCA2^BD and SMARCA4^BD at 0.01–0.05 mg/ml in coupling buffer (10 mM Na-Acetate pH 6.5, 0.005% TWEEN 20 and 50 µM PFI-3[13]) were immobilised to a density of 100–5000 Response Units (RU). The reference surface was subsequently deactivated using 1 M ethanolamine. For VCB immobilisation, streptavidin (Sigma Aldrich, prepared at 1 mg/ml in 10 mM sodium acetate coupling buffer, pH 5.0) was immobilised by amine coupling to a density of 3000–5000 RU after which biotinylated VCB complex (0.125 mM in running buffer) was streptavidin-coupled to a density of 100–500 RU. Biotinylated VCB was prepared as previously described[27]: in brief, the complex was mixed 1:1 with EZ-Link NHS–PEG4–biotin (Thermo Scientific) and incubated at room temperature for 1 h."}}, "note": "Values joined by “and” are separate entries in the source; they are usually repeats but may differ in a detail not shown here. Equal entries are not always repeated."}
{"molecule": "Cc1ncsc1-c1ccc([C@H](CC[C@@H](C)CCN2CCC(c3ccc4c(c3)n(C3CCCC3)c3nc(=O)c5c(Br)cccc5n43)CC2)NC(=O)[C@@H]2C[C@@H](O)CN2C(=O)[C@@H](NC(=O)C2(F)CC2)C(C)(C)C)cc1", "note": "[compound 29]", "values": [{"measurement": "DC50", "setting": "SMARCA2; RKO (4 h)", "result": "0.002 ± 0.001", "unit": "µM"}, {"measurement": "SMARCA2 Dmax", "setting": "SMARCA2; RKO (4 h)", "result": "74 ± 2", "unit": "%"}, {"measurement": "DC50", "setting": "SMARCA2; RKO (18 h)", "result": "0.001 ± 0.0001", "unit": "µM"}, {"measurement": "SMARCA2 Dmax", "setting": "SMARCA2; RKO (18 h)", "result": "84 ± 4", "unit": "%"}, {"measurement": "Kd", "setting": "SMARCA4^BD; SMARCA4BD, mean ± SD", "result": "0.397 ± 0.049", "unit": "µM"}, {"measurement": "Kd", "setting": "SMARCA4^BD; individual replicates", "result": "0.347 µM and 0.4 µM"}]}
{"molecule": "Cc1ncsc1-c1ccc(CNC(=O)[C@@H]2C[C@H](O)CN2C(=O)[C@@H](NC(=O)C2(F)CC2)C(C)(C)C)c(OCCN2CCC(c3ccc4c(c3)n(C3CCCC3)c3nc(=O)c5c(Br)cccc5n43)CC2)c1", "note": "[compound 19]", "values": [{"measurement": "DC50", "setting": "SMARCA2; RKO (4 h)", "result": "> 25", "unit": "µM"}, {"measurement": "DC50", "setting": "SMARCA2; RKO (18 h)", "result": "> 25", "unit": "µM"}, {"measurement": "Kd", "setting": "SMARCA4^BD; SMARCA4BD, mean ± SD", "result": "0.138 ± 0.043", "unit": "µM"}, {"measurement": "Kd", "setting": "SMARCA4^BD; individual replicates", "result": "0.0982 µM and 0.132 µM and 0.183 µM"}]}
{"molecule": "Cc1ncsc1-c1ccc([C@H](CC[C@H](C)CCN2CCC(c3ccc4c(c3)n(C3CCCC3)c3nc(=O)c5c(Br)cccc5n43)CC2)NC(=O)[C@@H]2C[C@H](O)CN2C(=O)[C@@H](NC(=O)C2(F)CC2)C(C)(C)C)cc1", "note": "[compound 12]", "values": [{"measurement": "DC50", "setting": "SMARCA2; RKO (4 h)", "result": "> 25", "unit": "µM"}, {"measurement": "Dmax", "setting": "SMARCA2; RKO (18 h)", "result": "82 ± 16", "unit": "%"}, {"measurement": "Kd", "setting": "SMARCA4^BD; SMARCA4BD, mean ± SD", "result": "0.362 ± 0.052", "unit": "µM"}, {"measurement": "Kd", "setting": "SMARCA4^BD; individual replicates", "result": "0.306 µM and 0.408 µM and 0.37 µM"}]}
{"molecule": "Cc1ncsc1-c1ccc([C@H](COCCN2CCC(c3ccc4c(c3)n(C3CCCC3)c3nc(=O)c5c(Br)cccc5n43)CC2)NC(=O)[C@@H]2C[C@@H](O)CN2C(=O)[C@@H](NC(=O)C2(N(C)C)CC2)C(C)(C)C)cc1", "note": "[compound 26]", "values": [{"measurement": "DC50", "setting": "SMARCA2; RKO (4 h)", "result": "0.012 ± 0.007", "unit": "µM"}, {"measurement": "DC50", "setting": "SMARCA2; RKO (18 h)", "result": "0.006 ± 0.002", "unit": "µM"}, {"measurement": "Dmax", "setting": "SMARCA2; RKO (4 h)", "result": "77 ± 3", "unit": "%"}, {"measurement": "Dmax", "setting": "SMARCA2; RKO (18 h)", "result": "82 ± 4", "unit": "%"}, {"measurement": "Kd", "setting": "SMARCA4^BD; SMARCA4BD, mean ± SD", "result": "0.21 ± 0.017", "unit": "µM"}, {"measurement": "Kd", "setting": "SMARCA4^BD; individual replicates", "result": "0.202 µM and 0.199 µM and 0.229 µM"}]}
{"molecule": "Nc1cccc2c1c(=O)nc1n(C3CCCC3)c3ccccc3n21", "note": "[compound 2]", "values": [{"measurement": "DC50", "setting": "SMARCA2; RKO (4 h)", "result": "> 25", "unit": "µM"}, {"measurement": "DC50", "setting": "SMARCA2; RKO (18 h)", "result": "> 25", "unit": "µM"}, {"measurement": "Kd", "setting": "SMARCA4^BD; SMARCA4BD, mean ± SD", "result": "2.75 ± 0.455", "unit": "µM"}, {"measurement": "Kd", "setting": "SMARCA4^BD; individual replicates", "result": "2.74 µM and 2.3 µM and 3.21 µM and > 2 µM (2×)"}]}
{"molecule": "CN1CCN(c2nc(=O)c3c(F)cccc3o2)CC1", "note": "[compound 17]", "values": [{"measurement": "DC50", "setting": "SMARCA2; RKO (4 h)", "result": "> 25", "unit": "µM"}, {"measurement": "DC50", "setting": "SMARCA2; RKO (18 h)", "result": "> 25", "unit": "µM"}]}
{"molecule": "Cc1ncsc1-c1ccc(CNC(=O)[C@@H]2C[C@@H](O)CN2C(=O)[C@@H](NC(=O)C2(F)CC2)C(C)(C)C)c(OCCN2CCC(c3ccc4c(c3)n(C3CCCC3)c3nc(=O)c5c(Br)cccc5n43)CC2)c1", "note": "[compound 20]", "values": [{"measurement": "DC50", "setting": "SMARCA2; RKO (4 h)", "result": "> 25", "unit": "µM"}, {"measurement": "DC50", "setting": "SMARCA2; RKO (18 h)", "result": "> 25", "unit": "µM"}, {"measurement": "Kd", "setting": "SMARCA4^BD; SMARCA4BD, mean ± SD", "result": "0.182 ± 0.023", "unit": "µM"}, {"measurement": "Kd", "setting": "SMARCA4^BD; individual replicates", "result": "0.157 µM and 0.202 µM and 0.187 µM"}]}
{"molecule": "CN1CCN(c2nc(=O)c3c(Cl)cccc3o2)CC1", "note": "[compound 13]", "values": [{"measurement": "DC50", "setting": "SMARCA2; RKO (4 h)", "result": "> 25", "unit": "µM"}, {"measurement": "DC50", "setting": "SMARCA2; RKO (18 h)", "result": "> 25", "unit": "µM"}, {"measurement": "Kd", "setting": "SMARCA4^BD; SMARCA4BD, mean ± SD", "result": "35.6 ± 0.346", "unit": "µM"}, {"measurement": "Kd", "setting": "SMARCA4^BD; individual replicates", "result": "31.6 µM and 37.5 µM and 37.7 µM"}]}
{"molecule": "O=c1nc2n(C3CCCC3)c3ccccc3n2c2cccc(Br)c12", "note": "[compound 1]", "values": [{"measurement": "DC50", "setting": "SMARCA2; RKO (4 h)", "result": "> 25", "unit": "µM"}, {"measurement": "DC50", "setting": "SMARCA2; RKO (18 h)", "result": "> 25", "unit": "µM"}, {"measurement": "Kd", "setting": "SMARCA4^BD; SMARCA4BD, mean ± SD", "result": "1.68 ± 0.317", "unit": "µM"}, {"measurement": "Kd", "setting": "SMARCA4^BD; individual replicates", "result": "1.32 µM and 1.83 µM and 1.9 µM"}]}
